Measurements: publication PMC12406685, “Thiazole substitution of a labile amide bond—a new option toward antiplasmodial pantothenamide-mimics” (Antimicrobial Agents and Chemotherapy, 2025)

How the values were obtained:
HsPanK3 = biological target: T1, HsPanK3 (Homo sapiens, UniProt Q9H999); assay: HsPanK kinetic assay (pyruvate kinase/lactic dehydrogenase coupled, NADH at 340 nm); type: biochemical; design: catalytic core domain of human PanK3 (amino acid residues 12–368); made in house; host or cells: E. coli BL21(DE3); conditions: for Substrate inhibition of HsPanK3: at rising substrate concentration (0–2,000 µM)
T1 sequence (Q9H999 12-368): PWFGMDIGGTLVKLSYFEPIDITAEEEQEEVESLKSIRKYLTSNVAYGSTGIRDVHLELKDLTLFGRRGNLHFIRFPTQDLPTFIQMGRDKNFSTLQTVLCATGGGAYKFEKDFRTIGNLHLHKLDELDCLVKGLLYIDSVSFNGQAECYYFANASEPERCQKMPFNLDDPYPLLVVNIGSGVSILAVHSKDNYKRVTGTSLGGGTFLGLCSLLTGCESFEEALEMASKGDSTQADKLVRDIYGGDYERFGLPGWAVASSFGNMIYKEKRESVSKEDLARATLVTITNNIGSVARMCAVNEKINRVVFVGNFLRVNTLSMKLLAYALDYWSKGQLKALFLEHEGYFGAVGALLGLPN
Description: The gene encoding the catalytic core domain of human PanK3 (amino acid residues 12–368) was synthesized and cloned into the pET28a(+) expression vector using the NdeI and BamHI restriction sites to produce an N-terminal His6-tagged protein (Bio Basic Inc.). The plasmid was transformed into E. coli BL21(DE3) cells, which were cultured in Terrific Broth (TB) medium containing 50 µg/mL kanamycin at 37°C. When the culture reached an optical density at 600 nm (OD600) of 0.6, protein expression was induced by adding 1.0 mM isopropyl β-D-thiogalactoside (IPTG), followed by incubation at 18°C for 17–18 h. The cells were then harvested and resuspended in lysis buffer (20 mM Tris-HCl, pH 7.5, 500 mM NaCl, 5 mM imidazole, 5% [vol/vol] glycerol) supplemented with 1 mM PMSF (phenylmethylsulfonyl fluoride) and lysozyme (5 mg/g of the cell pellet). The suspension was then sonicated on ice, and the resulting lysate was centrifuged twice at 54,000 × g for 30 min at 4°C.
The clarified supernatant was incubated with Ni-NTA resin (Cytiva) pre-equilibrated with lysis buffer containing 5 mM imidazole at 4°C. After binding, the resin was washed with lysis buffer containing 30 mM imidazole, then eluted with lysis buffer containing 250 mM imidazole. The eluted HsPanK3 protein was dialyzed against storage buffer (20 mM Tris-HCl, pH 7.5, 200 mM NaCl, 5% [vol/vol] glycerol) and concentrated. The purified protein was stored at −80°C. Protein purity was assessed using SDS-PAGE and deemed >50% (Fig. S4).
The enzyme assay was adapted from a previously described method ([103]), which links the production of ADP to the consumption of NADH through the enzymatic activities of pyruvate kinase and lactic dehydrogenase. Reactions were conducted in 96-well microtiter plates, and the decrease in NADH concentration was measured at 340 nm at 30 s intervals after incubation at 30°C. Each reaction mixture (200 µL) contained the desired compound (substrate) at variable concentrations (0–2,000 µM), ATP (1.5 mM), NADH (0.3 mM), phospho(enol)pyruvate (2.0 mM), MgCl2 (10 mM), KCl (20 mM), a commercial pyruvate kinase/lactic dehydrogenase mixture (12 units, Sigma-Aldrich), and pantothenate kinase (0.48 µM) in 50 mM Tris–HCl buffer (pH 7.6). The reaction was initiated with the addition of ATP. The kinetic parameters were determined by fitting the rate data into the Michaelis–Menten equation using GraphPad Prism 8.0 with nonlinear regressions. Data were collected from three independent experiments, each performed in triplicate to verify the trends and optimize the selected concentrations. The kinetic parameters were calculated from the most complete triplicate set of data, and errors represent SEM.

[1] = tested on: human hepatoblastoma cells (HepG2); assay: In vitro HepG2 proliferation assay (Incucyte confluency); type: cell-based; conditions: for Proliferation (%) of HepG2 with 200 µM Cpd and 1 µM Pan: 200 µM compound, 72 h, mean ± range/2 of two experiments; for Proliferation (%) of HepG2 with 200 µM Cpd and 1 µM Pan / Effect on HepG2 cells, in words: RPMI-1640 with 1 µM pantothenate
Description: (§1) HFF cells were maintained in vitro in DMEM supplemented with 10% (vol/vol) newborn calf serum, 50 units/mL penicillin, 50 µg/mL streptomycin, 10 µg/mL gentamicin, 0.2 mM L-glutamine, and 0.25 µg/mL amphotericin B, as previously described ([99]). HepG2 cells were maintained in RPMI-1640 medium (Thermo Fisher Scientific, catalogue number 72400120) supplemented with 10% (vol/vol) fetal bovine serum, 50 units/mL penicillin, and 50 µg/mL streptomycin.
In vitro HepG2 proliferation assays were performed similarly to the HFF proliferation assays with modifications. Confluent HepG2 cells were harvested by treatment with 1 × trypsin–EDTA and diluted in RPMI-1640 supplemented with 10% (vol/vol) fetal bovine serum. Assays were set up in 96-well microtiter plates with 20,000 cells per well. Puromycin (10 µM) was used as a non-proliferation control, and 0.1% (vol/vol) DMSO served as a 100% proliferation control. The plates were incubated at 37°C in a CO2 incubator for 72 h, and the Incucyte Live-Cell Analysis System (Essen BioScience) was used to capture cellular changes and assess cell growth in each well over time as described above for the HFF proliferation assays. The bottom of the curve was constrained to 0 when fitting for HepG2 proliferation assays using GraphPad Prism.

[2] = tested on: human foreskin fibroblasts (HFF); assay: In vitro HFF proliferation assay (Incucyte confluency); type: cell-based; conditions: 200 µM compound, DMEM with 16.8 µM pantothenate, 96 h; mean ± range/2 of two experiments
Description: as §1
In vitro HFF proliferation assays were performed as previously described by Howieson et al. ([32]), with modifications. Confluent HFF cells (in a 75 cm^2 flask) were harvested by treatment with 1 × trypsin–EDTA (0.25% [wt/vol] trypsin +0.2 g/L EDTA) and diluted in 21 mL of DMEM supplemented with 10% [vol/vol] newborn calf serum ([32]). Assays were set up in 96-well microtiter plates in a similar way to that described for the antiplasmodial activity assay. Cycloheximide (10 µM) was used as a non-proliferation control, and 0.1% (vol/vol) DMSO served as a 100% proliferation control. The plates were incubated at 37°C in a CO2 incubator for 96 h, and the Incucyte Live-Cell Analysis System (Essen BioScience) was used to capture cellular changes and assess cell growth in each well over time. Each well was scanned to capture bright field images, and confluency was assessed at the end of the 96 h incubation, which was then used to evaluate the effect of each compound on the proliferation of HFF cells by comparing it to the 100% proliferation control. The bottom of the curve was constrained to 0 when fitting for HFF proliferation assays using GraphPad Prism.

[3] = relative to natural substrate pantothenate

Row | Compound | kcat of HsPanK3 compared with that of pantothenate, in words (HsPanK3) | Proliferation (%) of HepG2 with 200 µM Cpd and 1 µM Pan [1] | Effect on HepG2 cells, in words ([1]; 200 µM) | Proliferation (%) of HFF with 200 µM Cpd and 16.8 µM Pan [2] | Fold lower kcat/Km of HsPanK3 compared to pantothenate (HsPanK3; [3]) | inhibition at 200 µM ([1]; Homo sapiens, HepG2, 200 µM) | Ki (HsPanK3) | Substrate inhibition of HsPanK3 (HsPanK3) | Fold higher Km of HsPanK3 for compound compared to pantothenate (HsPanK3; [3])
1 | CCCCc1csc(CNC(=O)[C@H](O)C(C)(C)CO)n1 [Compound 1a] | same as | 71 ± 11% | some low-level toxicity | 100 ± 1% |  |  |  |  | 
2 | CCCCCc1csc(CNC(=O)[C@H](O)C(C)(C)CO)n1 [Compound 1c] | same as | 62 ± 7% | some low-level toxicity | 97 ± 4% | ~ 3 fold |  |  |  | 
3 | CC(C)(CO)[C@@H](O)C(=O)NCc1nc(CCc2ccccc2)cs1 [Compound 1e] | slightly lower | 55 ± 1% | some low-level toxicity | 101 ± 2% |  | ~50% |  |  | 
4 | CC(C)(CO)[C@@H](O)C(=O)NCc1csc(Cc2ccccc2)n1 [Compound 2c] | same as | 93 ± 2% | completely inactive | 101 ± 2% | ~ 3 fold |  | 2.65 mM | Substrate inhibition | 
5 | CC(C)(CO)[C@@H](O)C(=O)NCc1csc(-c2ccccc2)n1 [Compound 2e] | same as | 91 ± 4% | completely inactive | 100 ± 1% |  |  | 4.34 mM | Substrate inhibition | 2.8 fold
6 | CC(C)(CO)[C@@H](O)C(=O)NCc1cnc(-c2ccccc2)s1 [Compound 3f] | slightly higher | 89 ± 2% | completely inactive | 100 ± 1% | ~ 3 fold |  |  |  | 
